The values that follow come from patent US4839155A, “Iodotamoxifen derivatives and use for estrogen receptor-positive breast cancer detection and therapy” (National Research Development Corporation, priority 1986, dated 1989).

In one data set the test system is MCF-7 cells. The data set is described as follows: MCF-7 cell growth, % of control. Type of data set: cell-based, human. To be noted: for activity at 1 µM / activity at 0.1 µM / activity at 0.01 µM: Homo sapiens, MCF7, 37° C., 24 hours, ± standard deviation of four samples, >100 = growth stimulating (estrogenic); for activity at 1 µM: 10^-6 M; for activity at 0.1 µM: 10^-7 M; for activity at 0.01 µM: 10^-8 M; for activity in MCF-7 cell growth tests (in words): evaluation of Table 2, compared with tamoxifen.

The target of data set [1] is T1, estrogen receptor (rat uterine cytosol) (Rattus norvegicus, UniProt P06211).
T1 construct: from tissue; host or cells: immature rat uterus, cytosol
T1 sequence (P06211 1-600): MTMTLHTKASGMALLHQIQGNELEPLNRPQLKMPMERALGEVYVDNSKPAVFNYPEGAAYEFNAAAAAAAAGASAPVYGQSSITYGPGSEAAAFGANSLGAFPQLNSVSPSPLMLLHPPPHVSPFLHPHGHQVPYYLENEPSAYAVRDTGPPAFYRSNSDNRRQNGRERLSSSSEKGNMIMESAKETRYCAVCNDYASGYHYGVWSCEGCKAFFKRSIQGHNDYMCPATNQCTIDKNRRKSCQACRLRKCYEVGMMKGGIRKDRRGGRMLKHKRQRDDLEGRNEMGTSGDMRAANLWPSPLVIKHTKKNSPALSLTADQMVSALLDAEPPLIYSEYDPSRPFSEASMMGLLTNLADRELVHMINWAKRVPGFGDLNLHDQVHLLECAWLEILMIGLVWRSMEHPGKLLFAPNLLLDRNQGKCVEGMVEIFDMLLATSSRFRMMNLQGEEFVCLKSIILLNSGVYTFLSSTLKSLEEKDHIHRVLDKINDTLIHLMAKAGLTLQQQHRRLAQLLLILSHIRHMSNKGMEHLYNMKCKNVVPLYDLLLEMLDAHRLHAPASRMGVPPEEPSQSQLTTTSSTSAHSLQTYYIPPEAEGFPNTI
The data set is described as follows: Relative binding affinity (RBA), rat uterine cytosol, inhibition of (3H)estradiol binding. As to conditions: RBA = [I50](estradiol)/[I50](test compound) × 100; 18° C., 30 minutes, 5×10^-9 M (3H)estradiol. On the procedure: Immature rat uterine cytosol was incubated at 18° C. for 30 minutes with 5×10^-9 M (^3 H)estradiol in the absence and presence of increasing amounts (10^-9 -10^-5 M) of the test compound or unlabelled estradiol (control). Unbound compounds were then removed with dextran-coated charcoal, and the amounts of estrogen receptor-bound (^3 H)estradiol were measured.
(§1) The higher the values in the rat uterine cytosol test the greater the antiestrogenic effect. In the whole cell test, on the other hand, the estrogen receptors are localised in the cell nucleus and therefore bound to DNA. In the whole cell test, a low value indicating poor binding to cell nucleus ER and consequently low estrogenicity, can be considered favorable.

For data set [2], the target named is T2, estrogen receptor (MCF-7 whole cells) (Homo sapiens, UniProt P03372).
T2 construct: host or cells: MCF-7 whole cells
T2 sequence (P03372 1-595): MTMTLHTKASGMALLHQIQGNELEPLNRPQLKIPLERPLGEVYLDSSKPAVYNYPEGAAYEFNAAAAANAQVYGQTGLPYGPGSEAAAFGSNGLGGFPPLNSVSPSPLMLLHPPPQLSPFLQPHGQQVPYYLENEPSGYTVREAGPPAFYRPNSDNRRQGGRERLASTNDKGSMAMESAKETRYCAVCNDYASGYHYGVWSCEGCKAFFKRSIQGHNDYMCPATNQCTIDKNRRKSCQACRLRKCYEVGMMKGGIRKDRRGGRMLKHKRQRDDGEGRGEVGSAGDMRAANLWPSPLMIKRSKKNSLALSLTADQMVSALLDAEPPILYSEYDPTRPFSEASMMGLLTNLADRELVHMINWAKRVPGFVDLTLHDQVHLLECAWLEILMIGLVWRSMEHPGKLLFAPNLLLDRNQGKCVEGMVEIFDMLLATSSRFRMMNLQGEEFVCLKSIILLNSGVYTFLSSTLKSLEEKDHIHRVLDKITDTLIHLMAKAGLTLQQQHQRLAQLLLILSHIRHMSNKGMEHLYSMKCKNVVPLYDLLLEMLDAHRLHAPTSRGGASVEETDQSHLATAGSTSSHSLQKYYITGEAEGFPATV
Kind of data set: Relative binding affinity (RBA), MCF-7 whole cell assay, inhibition of (3H)estradiol binding. To be noted: RBA = [I50](estradiol)/[I50](test compound) × 100; 37° C., 50 minutes, 10^-9 M (3H)estradiol. Here is the method: A whole cell assay was then performed using the MCF-7 human breast cancer cell line obtained from the Michigan Cancer Foundation, Detroit, USA. MCF-7 cells were maintained at 37° C. in monolayer culture in closed T-25 dishes in mininal essential medium (MEM) supplemented with L-glutamine (0.6 mg/ml), gentamycin (40 micrograms/ml). penicillin (100 U/ml) streptomycin (100 micrograms/ml) and 10% inactivated fetal calf serum (inactivated for 1 hour at 56° C.). The MCF-7 cells were incubated at 37° C. for 50 minutes with 10^-9 M (^3 H)estradiol in the absence or presence of increasing amounts (10^-10 -10^-5 M) of the test compound or unlabelled estradiol (control). Bound compounds were then extracted with ethanol, and the amounts of estrogen receptor bound (^3 H) estradiol were measured. The RBA values were calculated as for the rat uterine cytosol.
as §1

Data set [3] concerns estrogen receptor. As to conditions: prior art; cited from earlier work.
For data set [4] the following is noted: in vivo; prior art; cited from earlier work.
For data set [5], the system named is estrogen receptor-positive breast cancer. The data set is described as follows: Potency in relation to estrogen receptor-positive breast cancer (summary statement). To be noted: compared with tamoxifen.
The conditions of data set [6]: cited from earlier work.
For the next data set, the system named is estrogen receptor (ER). To be noted: prior art; cited from earlier work.
The test system of the next data set is rat uterine weight. To be noted: compared with tamoxifen; K. E. Allen et al. (1980); cited from earlier work.
Data set [7] concerns estrogen receptor. To be noted: K. E. Allen et al. (1980); cited from earlier work.

For `CC/C(=C(/c1ccc(OCCN(C)C)cc1)c1cccc(I)c1)c1ccccc1` [3-Iodotamoxifen, E 1-[4-(2-dimethylaminoethoxy)phenyl]-1-(3-iodophenyl)-2-phenyl-1-butene], in the data set on MCF-7 cells, the activity at 1 µM turned out to be 27 ± 5%, the activity at 0.1 µM is 68 ± 2%, the activity at 0.01 µM was 100 ± 8% and the “activity in MCF-7 cell growth tests (in words)” value (“activity … (in words)” for short) is “about as active as tamoxifen”.
Turning to `CC/C(=C(\c1ccc(Br)cc1)c1ccc(OCCN(C)C)cc1)c1ccccc1` [4-Bromotamoxifen, E 1-[4-(2-dimethylaminoethoxy)phenyl]-1-(4-bromophenyl)-2-phenyl-1-butene], in the data set on MCF-7 cells, the activity at 1 µM came to 63 ± 8%, the activity at 0.1 µM was determined as 101 ± 8%, the activity at 0.01 µM amounted to 130 ± 10% and the “activity … (in words)” value is on record as “less active than tamoxifen”. Moreover, in [1], the “RBA (relative binding affinity), Rat uterine cytosol” value is recorded as 3. The “RBA (relative binding affinity), MCF-7 whole cells” value in [2] amounted to 0.02.
In the case of `CC/C(=C(\c1ccc(O)cc1)c1ccc(OCCN(C)C)cc1)c1ccccc1` [4-Hydroxytamoxifen], in the data set on estrogen receptor [3], the “anti-estrogen potency in vitro” value was “potent anti-estrogen”. In addition, in data set [4], the “glucuronidation of the hydroxyl group followed by excretion” value is given as “rapid glucuronidation of the hydroxyl group followed by excretion”.
Regarding `CC/C(=C(\c1ccc(I)cc1)c1ccc(OCCN(C)C)cc1)c1ccccc1` [4-Iodotamoxifen, E 1-[4-(2-dimethylaminoethoxy)phenyl]-1-(4-iodophenyl)-2-phenyl-1-butene], in the data set with MCF-7 cells, the activity at 1 µM was found to be 26 ± 2%, the activity at 0.1 µM turned out to be 42 ± 6% and the activity at 0.01 µM came to 115 ± 6%. Besides, the “RBA (relative binding affinity), Rat uterine cytosol” value in data set [1] was 30. The “potency in relation to estrogen receptor-positive breast cancer” value in data set [5] is “greater potency than tamoxifen”. Further, the “RBA (relative binding affinity), MCF-7 whole cells” value in data set [2] is 0.05.
In the case of `CC/C(=C(\c1ccc(OC)cc1)c1ccc(OCCN(C)C)cc1)c1ccccc1` [4-methoxy derivative], the “activity in other tests” value in data set [6] (compared with tamoxifen, K. E. Allen et al. (1980)) is on record as “about the same as tamoxifen”.
`CC/C(=C(\c1ccc(I)cc1)c1ccc(OCCN(CC)CC)cc1)c1ccccc1` [E-1-[4-(2-Diethylaminoethoxy)phenyl]-1-(4-iodophenyl)-2-phenyl-1-butene]: in the data set with MCF-7 cells, the activity at 1 µM stood at 23 ± 2%, the activity at 0.1 µM amounted to 35 ± 5% and the activity at 0.01 µM turned out to be 101 ± 7%.
Consider `CC/C(=C(\c1ccc(I)cc1)c1ccc(OCCN2CCCC2)cc1)c1ccccc1` [Pyrrolidino analogue of 4-iodotamoxifen, E-1-[4-(2-(N-pyrrolidino)ethoxy)phenyl]-1-(4-iodophenyl-2-phenyl-1-butene)], for which, in the data set on MCF-7 cells, the activity at 1 µM turned out to be 20 ± 2%, the activity at 0.1 µM is 27 ± 3%, the activity at 0.01 µM was determined as 84 ± 5% and the “activity … (in words)” value was “particularly active”.
For the molecule `CC/C(=C(\c1ccccc1)c1ccc(OCCN(C)C)cc1)c1ccccc1` [Tamoxifen, Z (1,2-diphenyl)-1-[4-(2-dimethylaminoethoxy)-phenyl]-1-butene], in the data set on MCF-7 cells, the activity at 1 µM is 30 ± 1% and the activity at 0.1 µM came out at 52 ± 1%. Further, the “affinity for the estrogen receptor (ER)” value in the data set with estrogen receptor (ER) is “relatively low affinity”.
For the molecule `CC/C(=C(/c1ccc(Br)cc1)c1ccc(OCCN(C)C)cc1)c1ccccc1` [Z isomer of 4-bromotamoxifen, reference compound], in the data set on MCF-7 cells, the activity at 1 µM was 174 ± 8%, the activity at 0.1 µM was determined as 163 ± 4% and the activity at 0.01 µM is 110 ± 3%.
The matching figures for `CC/C(=C(/c1ccc(I)cc1)c1ccc(OCCN(C)C)cc1)c1ccccc1` [Z isomer of 4-iodotamoxifen, reference compound]: 120 ± 3%, 126 ± 6% and 99 ± 13%.
For the molecule `CC/C(=C(\c1ccc(Cl)cc1)c1ccc(OCCN(C)C)cc1)c1ccccc1` [chloro], the “anti-estrogenic activity, in vivo rat uterine weight tests” value (“anti-estrogenic activity” below) in the data set with rat uterine weight is listed as “lower anti-estrogenic activity than tamoxifen”. Moreover, the “potency compared with tamoxifen (report by K. E. Allen et al.)” value in data set [6] is given as “of no greater potency than tamoxifen”. Besides, in the data set with estrogen receptor [7], the “estrogen receptor affinity in vitro, compared with tamoxifen” value is listed as “approximately equiactive”.
In the case of `CC/C(=C(\c1ccc(F)cc1)c1ccc(OCCN(C)C)cc1)c1ccccc1` [fluoro], in the data set on rat uterine weight, the “anti-estrogenic activity” value was “lower anti-estrogenic activity than tamoxifen”. In addition, in data set [6], the “potency compared with tamoxifen (report by K. E. Allen et al.)” value was “of no greater potency than tamoxifen”. Further, the “estrogen receptor affinity in vitro, compared with tamoxifen” value in the data set with estrogen receptor [7] was “approximately equiactive”.
For `CC/C(=C(\c1ccc(C)cc1)c1ccc(OCCN(C)C)cc1)c1ccccc1` [methyl], the “anti-estrogenic activity” value in the data set on rat uterine weight was “lower anti-estrogenic activity than tamoxifen”. For the same molecule, the “estrogen receptor affinity in vitro, compared with tamoxifen” value in the data set with estrogen receptor [7] was “approximately equiactive”.
